System: JA 657 chicks
Assay: Chick sleep/sedation test (IM injection, 90 minute observation)
Assay type: in vivo
Details: for Sed (sedation time as % of the period) / TA (time to torpor between injection and first stage of sleep) / TS (duration of the first sleep) / Tsed (total sedation time over the period): 90 min observation; for TS (mins) Placebo diff'ce: extension of first sleep compared with test controls
Method: The dihydroimidazo[5,1-a]-β-carboline derivatives of the invention, in particular those in the form of the methyl sulfonate, (soluble), were tested in chicks, and certain compounds that were active in the chick were administered in single doses to six Beagle dogs of both sexes for a polysomnographic study of at least 4 hours duration.
JA 657 chicks from Couvoir Gauguet, 44 Le Pin, were accustomed for at least 6 days to an alternating program of light and darkness with 12 hours of daylight and 12 hours of darkness at a regulated temperature of 25±2° C. They were fed ad libitum and were placed under test compounds in a vivarium in groups of 3 individuals with a mean weight of 100±10 g on the day of the test. At that age in this species, there is no effective meningeal (hemato-encephalic) barrier. The test products were injected in 3 doses (1, 3 and 10 mg/kg) intramuscularly (IM) in solution or in an aqueous suspension (1 drop of Tween 80 per ml), each to two batches of 3 chicks which were observed over 90 minutes. For each test series (18 vivaria), there was at least one batch of negative control chicks receiving the same volume (0.2 ml IM) of water for injectable preparations.
During the 90 minute observation period, the chicks were strongly stimulated every 15 minutes by presenting a full feeding trough, and each 5 minute period was given a grade from among the following 5 states, corresponding to the state of alertness over that period:
Mobile, sitting alert, drowsy, asleep, sleep-like state. The parameters studied were the time to torpor (TA) passed between injection and the first stage of sleep, the duration of the first sleep (TS) and the total sedation time over the period (Tsed), expressed in minutes and as a % of the period (Sed).
To compare the results of tests carried out at different dates, the extension of the duration of the first sleep TS compared with the test controls was recorded.

Compound	Sed (sedation time as % of the period) (Dose: 1 mg/kg)	TA (time to torpor between injection and first stage of sleep) (Dose: 1 mg/kg)	TS (duration of the first sleep) (Dose: 1 mg/kg)	Tsed (total sedation time over the period) (Dose: 1 mg/kg)	TS (mins) Placebo diff'ce (Dose: 1 mg/kg)	Sed (sedation time as % of the period) (Dose: 3 mg/kg)	TA (time to torpor between injection and first stage of sleep) (Dose: 3 mg/kg)	TS (duration of the first sleep) (Dose: 3 mg/kg)	Tsed (total sedation time over the period) (Dose: 3 mg/kg)	TS (mins) Placebo diff'ce (Dose: 3 mg/kg)	Sed (sedation time as % of the period) (Dose: 10 mg/kg)	TA (time to torpor between injection and first stage of sleep) (Dose: 10 mg/kg)	TS (duration of the first sleep) (Dose: 10 mg/kg)	Tsed (total sedation time over the period) (Dose: 10 mg/kg)	TS (mins) Placebo diff'ce (Dose: 10 mg/kg)
CS(=O)(=O)O.Cc1ncc2n1CCc1c-2[nH]c2ccc(O)cc12 [Example 11, 8-hydroxy-3-methyl-5,6-dihydroimidazo[5,1-a]-β-carboline methane sulfonate]	29.4%	40 min	0 min	26.5 min	-0.3 min	38.3%	15 min	7 min	34.5 min	6.7 min	20.6%	6 min	9.5 min	18.5 min	9 min
CS(=O)(=O)O.Cc1ncc2n1CCc1c-2n(C)c2ccc(O)cc12 [Example 10, 8-hydroxy-3,11-dimethyl-5,6-dihydroimidazo-[5,1-a]-β-carboline methane sulfonate]	42.2%	15 min	5 min	38 min	4.7 min	12.2%	30 min	1 min	11 min	0.7 min	30%	11.5 min	12.5 min	27 min	12 min
CCn1c2c(c3cc(C)ccc31)CCn1c-2cnc1C.CS(=O)(=O)O [Example 20, 11-ethyl-3,8-dimethyl-5,6-dihydroimidazo-[5,1-a]-β-carboline methane sulfonate]	80%	2 min	65.5 min	72 min	57 min	79.4%	1.5 min	51.5 min	71.5 min	43.5 min	97.2%	1.5 min	87.5 min	87.5 min	81.5 min
CCn1c2c(c3ccccc31)CCn1c-2cnc1C.CS(=O)(=O)O [Example 15, 11-ethyl-3-methyl-5,6-dihydroimidazo[5,1-a]-β-carboline methane sulfonate]	23.9%	12.5 min	12 min	21.5 min	21 min	45%	7 min	29.5 min	40.5 min	29 min	80%	1 min	70 min	72 min	69.7 min
COc1ccc2[nH]c3c(c2c1)CCn1c-3cnc1-c1ccccc1 [Example 14]	63.5%	7 min	35.5 min	62.865 min	32 min	68%	15 min	34 min	61.2 min	31.5 min	70%	7 min	28 min	63 min	25.5 min
CS(=O)(=O)O.Cc1ncc2n1CCc1c-2[nH]c2ccccc12 [Example 12, 3-methyl-5,6-dihydroimidazo[5,1-a]-β-carboline methane sulfonate]	51.7%	10 min	39.5 min	46.5 min	39 min	63.9%	3.5 min	42 min	57.5 min	41.7 min	98.9%	1 min	89 min	89 min	88.7 min
COc1ccc2c(c1)c1c(n2C)-c2cnc(C)n2CC1.CS(=O)(=O)O [Example 9, 8-methoxy-3,11-dimethyl-5,6-dihydroimidazo-[5,1-a]-β-carboline methane sulfonate]	27.2%	22 min	3 min	24.5 min	2.8 min	29.4%	17.5 min	13.5 min	26.5 min	13 min	42.8%	16.5 min	15.5 min	38.5 min	15 min
CS(=O)(=O)O.Cc1ccc2c(c1)c1c(n2C)-c2cnc(C)n2CC1 [Example 19, 3,8,11-trimethyl-5,6-dihydroimidazo[5,1-a]-β-carboline methane sulfonate]	49.4%	4 min	17.5 min	44.5 min	11 min	62.8%	3.5 min	46.5 min	56.5 min	38.5 min	75.0%	3.5 min	60 min	67.5 min	52 min
CCCc1ncc2n1CCc1c-2[nH]c2ccc(OC)cc12 [Example 7, 8-methoxy-3-propyl-5,6-dihydroimidazo[5,1-a]-β-carboline]	41.4%	16.5 min	16 min	46 min	16 min	41%	16.5 min	27 min	45.5 min	27 min	48.2%	12.5 min	38.5 min	53.5 min	38.5 min
CCc1nc(C)n2c1-c1[nH]c3ccc(OC)cc3c1CC2 [Example 5, 1-ethyl-8-methoxy-3-methyl-5,6-dihydro-imidazo[5,1-a]-β-carboline]	58.3%	20.5 min	33 min	52.47 min	29 min	76.7%	14.5 min	53 min	69.0 min	49 min	62.8%	13.5 min	40.5 min	56.5 min	36.5 min

Source: US7291627B2, “Dihydroimidazo[5.1-a]-beta-carboline derivatives, method for their preparation, and their application as a drug” (MACEF, priority 2001, dated 2007)
